Results on two compounds are retold here after patent publication US20090047408A1, “Method for Improving Absorbability of Epigallocatechin Gallate, Foods, Drinks and Food/Drink Materials Using the Same and Method for Producing the Same” (ITO EN, LTD, priority 2005, published 2009).

Format in all cases: in vivo
Data set [1] in a line: Changes in blood concentration over time of orally ingested EGCg and caffeine in humans. As to conditions: oral ingestion.
The nature of data set [2]: Absorbability of EGCg in rats: blood EGCg level after oral administration of caffeine and EGCg solutions (chemiluminescence-HPLC). As to conditions: average of six rats. As for the experimental part: Teavigo, manufactured by DSM Nutritional Products) in 1 ml of water were prepared. In accordance with Experimental plots 1 to 7 shown in Table 1, the solution of caffeine and the solution of EGCg were orally administered to rats. After 60 minutes from the administration, the blood EGCG level in rats was measured by chemiluminescence-HPLC. The measurement was subjected by using six rats for each Experimental plot. The relationship between the C/E ratio and the blood EGCg level is graphically represented in accordance with Table 1, which is shown as FIG. 1. […] When the C/E ratio is lower or higher than that, the blood EGCg level is reduced.

A short description of data set [3]: Absorbability of EGCg in humans: blood EGCg level after drinking drinks A to C (chemiluminescence-HPLC). The method, then: Caffeine formulation (manufactured by […] Pharmaceutical Co., Ltd.), EGCg formulation (content of EGCg: 90% or more, trade name: Teavigo, manufactured by DSM Nutritional Products), ascorbic acid and citric acid were added in the amounts shown in Table 2, respectively, to 190 ml of water, which were dissolved. Thereafter, each of the resulting mixtures was poured into a can, respectively, which was sealed and sterilized by heat and then drinks A to C were prepared. […] Each of subjects drank one of the drinks […] minutes after the drinking was measured by chemiluminescence-HPLC. The measurement was subjected in three subjects for each drink. The relationship between the C/E ratio and the blood EGCg level is graphically represented in accordance with Table 2, which is shown as FIG. 2. According to Table 2, the blood EGCg level of subjects is the highest in the case that the drink B having the C/E ratio of 0.4 has been taken by the subjects, and the blood EGCg level falls in either case where the C/E ratio is lower or higher than that.

Each structure is given as a SMILES string. Bounds are passed on as bounds.

For `O=C(O[C@@H]1Cc2c(O)cc(O)cc2O[C@@H]1c1cc(O)c(O)c(O)c1)c1cc(O)c(O)c(O)c1` [EGCg, epigallocatechin gallate], the “Time at which blood concentration reaches a maximum value” in data set [1] is listed as “about 1.5 hours”. In addition, the “Blood EGCg level” value in data set [2] (Exp. plot 1: rats, caffeine 0 mg + EGCg 30 mg, C/E ratio 0, 60 minutes after administration) worked out at 229 pmol/mL; in data set [2] (Exp. plot 2: rats, caffeine 3 mg + EGCg 30 mg, C/E ratio 0.1, 60 minutes after administration) it was 243 pmol/mL; in data set [2] (Exp. plot 3: rats, caffeine 6 mg + EGCg 30 mg, C/E ratio 0.2, 60 minutes after administration), 270 pmol/mL; in data set [2] (Exp. plot 4: rats, caffeine 15 mg + EGCg 30 mg, C/E ratio 0.5, 60 minutes after administration) it was 221 pmol/mL; in data set [2] (Exp. plot 5: rats, caffeine 30 mg + EGCg 30 mg, C/E ratio 1.0, 60 minutes after administration), 153 pmol/mL; in data set [2] (Exp. plot 6: rats, caffeine 45 mg + EGCg 30 mg, C/E ratio 1.5, 60 minutes after administration), 90 pmol/mL. In addition, in data set [2] (Exp. plot 7: rats, caffeine 65 mg + EGCg 30 mg, C/E ratio 2.2, 60 minutes after administration), the “Blood EGCg level” value turned out to be 94 pmol/mL. Also, the “Absorbability of EGCg relative to EGCg alone” value is not below 1.7 times in data set [3] (C/E ratio 0.18 to 0.70) and not below 1.75 times in data set [3] (C/E ratio 0.20 to 0.60). The “Absorbability of EGCg relative to normal green tea infusion” value in data set [3] (C/E ratio 0.18 to 0.70) is not below 1.1 times; in data set [3] (C/E ratio 0.20 to 0.60), not below 1.15 times. Further, in data set [3] (optimized C/E ratio, maximum), the “Increase of absorbability of EGCg relative to normal tea” value is on record as “up to 1.2 times”.

With `Cn1c(=O)c2c(ncn2C)n(C)c1=O` [caffeine, reference compound], the “Time at which blood concentration reaches a maximum value” in data set [1] is given as “about 1.5 hours”.
